Read-outs that look alike come from different tables or passages of the source.
Legend:
rat α4β2 nAChR subtype = molecular target: T1, rat α4β2 nAChR subtype (Rattus norvegicus, UniProt P09483+P12390); assay: Radioligand binding ([3H]nicotine) at rat α4β2 nAChR, rat cortex membranes; conditions: read-out: Rat α4β2 Ki
T1 construct: Preparation of membranes from rat cortex; from tissue; host or cells: rat cerebral cortex membranes
Procedure: (§1) Preparation of membranes from rat cortex: Rats (female, Sprague-Dawley), weighing 150-250 g, were maintained on a 12 h light/dark cycle and were allowed free access to water and food supplied by PMI Nutrition International, Inc. Animals were anesthetized with 70% CO2, and then decapitated. Brains were removed and placed on an ice-cold platform. The cerebral cortex was removed and placed in 20 volumes (weight:volume) of ice-cold preparative buffer (137 mM NaCl, 10.7 mM KCl, 5.8 mM KH2PO4, 8 mM Na2HPO4, 20 mM HEPES (free acid), 5 mM iodoacetamide, 1.6 mM EDTA, pH 7.4); PMSF, dissolved in methanol to a final concentration of 100 μM, was added and the suspension was homogenized by Polytron. The homogenate was centrifuged at 18,000×g for 20 min at 4° C. and the resulting pellet was re-suspended in 20 volumes of ice-cold water. After 60 min incubation on ice, a new pellet was collected by centrifugation at 18,000×g for 20 min at 4° C. The final pellet was re-suspended in 10 volumes of buffer and stored at −20° C.
(§2) On the day of the assay, the frozen membranes were thawed and spun at 48,000×g for 20 min. The supernatant was decanted and discarded. The pellet was resuspended in Dulbecco's phosphate buffered saline (PBS, Life Technologies) pH 7.4 and homogenized with the Polytron for 6 seconds. Protein concentrations were determined using a Pierce BCA Protein Assay Kit, with bovine serum albumin as the standard (Pierce Chemical Company, Rockford, Ill.).
(§3) Incubation was terminated by rapid filtration on a multi-manifold tissue harvester (Brandel, Gaithersburg, Md.) using GF/B filters presoaked in 0.33% polyethyleneimine (w/v) to reduce non-specific binding. Tissue was rinsed 3 times in PBS, pH 7.4. Scintillation fluid was added to filters containing the washed tissue and allowed to equilibrate. Filters were then counted to determine radioactivity bound to the membranes by liquid scintillation counting (2200CA Tri-Carb LSC, Packard Instruments, 50% efficiency or Wallac Trilux 1450 MicroBeta, 40% efficiency, Perkin Elmer).
(§4) Data were expressed as disintegrations per minute (DPMs). Within each assay, each point had 2-3 replicates. The replicates for each point were averaged and plotted against the log of the drug concentration. IC50, which is the concentration of the compound that produces 50% inhibition of binding, was determined by least squares non-linear regression. Ki values were calculated using the Cheng-Prussof equation (1973): […]

human α4β2 nAChR subtype = molecular target: T2, human α4β2 nAChR subtype (Homo sapiens, UniProt P17787+P43681); assay: Radioligand binding ([3H]nicotine) at human α4β2 nAChR, SH-EP1/human α4β2 clonal cell membranes; conditions: read-out: Human α4β2 Ki
T2 construct: expressed in transfected cells; host or cells: SH-EP1 clonal cells expressing human α4β2
T2 sequence (P43681 29-627 limits assumed): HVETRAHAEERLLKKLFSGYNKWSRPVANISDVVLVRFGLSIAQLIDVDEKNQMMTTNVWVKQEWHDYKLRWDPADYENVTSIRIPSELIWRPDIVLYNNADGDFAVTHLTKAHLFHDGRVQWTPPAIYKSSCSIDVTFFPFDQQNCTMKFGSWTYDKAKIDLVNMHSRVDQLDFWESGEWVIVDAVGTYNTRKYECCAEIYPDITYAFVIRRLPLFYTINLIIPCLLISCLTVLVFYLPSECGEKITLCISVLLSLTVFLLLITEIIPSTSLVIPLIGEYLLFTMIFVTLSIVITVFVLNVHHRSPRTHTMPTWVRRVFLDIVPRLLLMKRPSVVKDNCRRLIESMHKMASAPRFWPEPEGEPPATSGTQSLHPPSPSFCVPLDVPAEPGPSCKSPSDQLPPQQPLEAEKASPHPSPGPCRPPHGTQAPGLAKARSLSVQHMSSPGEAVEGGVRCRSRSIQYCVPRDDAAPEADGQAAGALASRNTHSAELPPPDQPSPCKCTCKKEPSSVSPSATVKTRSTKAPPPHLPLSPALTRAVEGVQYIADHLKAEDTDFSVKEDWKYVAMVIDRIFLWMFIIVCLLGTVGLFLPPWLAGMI
T2 sequence (P17787 26-502): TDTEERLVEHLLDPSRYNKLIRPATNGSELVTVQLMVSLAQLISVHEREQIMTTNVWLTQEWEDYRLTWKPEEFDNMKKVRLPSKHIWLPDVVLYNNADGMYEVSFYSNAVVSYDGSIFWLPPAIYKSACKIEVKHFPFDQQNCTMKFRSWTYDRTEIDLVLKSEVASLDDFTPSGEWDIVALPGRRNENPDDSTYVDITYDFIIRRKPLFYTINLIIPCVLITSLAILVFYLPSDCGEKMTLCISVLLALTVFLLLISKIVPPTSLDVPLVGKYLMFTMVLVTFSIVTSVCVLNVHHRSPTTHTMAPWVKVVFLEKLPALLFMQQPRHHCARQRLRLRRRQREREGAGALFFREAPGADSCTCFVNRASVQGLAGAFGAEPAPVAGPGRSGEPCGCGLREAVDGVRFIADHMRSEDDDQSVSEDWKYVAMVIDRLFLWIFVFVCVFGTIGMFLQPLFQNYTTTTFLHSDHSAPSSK
Procedure: Preparation of membranes from SH-EP1/human α4β2 clonal cells: Cell pellets from 40 150 mm culture dishes were pooled, and homogenized by Polytron (Kinematica GmbH, Switzerland) in 20 milliliters of ice-cold preparative buffer. The homogenate was centrifuged at 48,000 g for 20 minutes at 4° C. The resulting pellet was re-suspended in 20 mL of ice-cold preparative buffer and stored at −20° C.
as §2, §3, §4

rat α7 nAChR subtype = molecular target: T3, rat α7 nAChR subtype (Rattus norvegicus, UniProt Q05941); assay: Radioligand binding ([3H]MLA) at α7 nAChR, rat hippocampus membranes
T3 construct: Preparation of membranes from rat hippocampus; from tissue; host or cells: rat hippocampus membranes
T3 sequence (Q05941 23-502): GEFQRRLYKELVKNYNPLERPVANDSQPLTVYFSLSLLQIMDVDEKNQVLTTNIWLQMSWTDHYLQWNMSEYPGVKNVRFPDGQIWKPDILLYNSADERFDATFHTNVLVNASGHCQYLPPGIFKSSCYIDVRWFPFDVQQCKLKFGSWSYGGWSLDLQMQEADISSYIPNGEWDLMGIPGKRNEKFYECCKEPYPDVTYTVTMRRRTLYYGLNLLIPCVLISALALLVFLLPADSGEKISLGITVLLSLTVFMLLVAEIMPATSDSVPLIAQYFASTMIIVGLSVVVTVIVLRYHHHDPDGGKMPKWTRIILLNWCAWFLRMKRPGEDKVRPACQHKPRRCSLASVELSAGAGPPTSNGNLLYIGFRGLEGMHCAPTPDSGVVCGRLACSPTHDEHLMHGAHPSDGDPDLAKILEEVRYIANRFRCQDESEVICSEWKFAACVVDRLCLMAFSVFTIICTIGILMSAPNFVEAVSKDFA
Procedure: as §1, with “from rat hippocampus: Rats (female,” for “from rat cortex: Rats (female,”, “70% CO2, then decapitated.” for “70% CO2, and then decapitated.”, “platform. The hippocampus was removed” for “platform. The cerebral cortex was removed”, “placed in 10 volumes (weight:volume)” for “placed in 20 volumes (weight:volume)”, “and the tissue suspension was” for “and the suspension was”, “re-suspended in 10 volumes of” for “re-suspended in 20 volumes of”
On the day of the assay, tissue was thawed, centrifuged at 18,000×g for 20 min, and then re-suspended in ice-cold PBS (Dulbecco's Phosphate Buffered Saline, 138 mM NaCl, 2.67 mM KCl, 1.47 mM KH2PO4, 8.1 mM Na2HPO4, 0.9 mM CaCl2, 0.5 mM MgCl2, Invitrogen/Gibco, pH 7.4) to a final concentration of approximately 2 mg protein/mL. Protein was determined by the method of Lowry et al., J. Biol. Chem. 193: 265 (1951), herein incorporated by reference, using bovine serum albumin as the standard.
Assay: The binding of [^3H]MLA was measured using a modification of the methods of Davies et al., Neuropharmacol. 38: 679 (1999), herein incorporated by reference. [^3H]MLA (Specific Activity=25-35 Ci/mmol) was obtained from Tocris. The binding of [^3H]MLA was determined using a 2 h incubation at 21° C. Incubations were conducted in 48-well micro-titre plates and contained about 200 μg of protein per well in a final incubation volume of 300 μL. The incubation buffer was PBS and the final concentration of [^3H]MLA was 5 nM. The binding reaction was terminated by filtration of the protein containing bound ligand onto glass fiber filters (GF/B, Brandel) using a Brandel Tissue Harvester at room temperature. Filters were soaked in de-ionized water containing 0.33% polyethyleneimine to reduce non-specific binding. Each filter was washed with PBS (3×1 mL) at room temperature. Non-specific binding was determined by inclusion of 50 μM non-radioactive MLA in selected wells.
The inhibition of [^3H]MLA binding by test compounds was determined by including seven different concentrations of the test compound in selected wells. Each concentration was replicated in triplicate. IC50 values were estimated as the concentration of compound that inhibited 50 percent of specific [^3H]MLA binding. Inhibition constants (Ki values), reported in nM, were calculated from the IC50 values using the method of Cheng et al., Biochem. Pharmacol. 22: 3099-3108 (1973), herein incorporated by reference.

[1] = rat hippocampus membranes, 5 nM [3H]MLA, read-out: Rat α7 Ki
[2] = rat cortex membranes, 5 nM [3H]nicotine

T1 sequence (P09483 31-630): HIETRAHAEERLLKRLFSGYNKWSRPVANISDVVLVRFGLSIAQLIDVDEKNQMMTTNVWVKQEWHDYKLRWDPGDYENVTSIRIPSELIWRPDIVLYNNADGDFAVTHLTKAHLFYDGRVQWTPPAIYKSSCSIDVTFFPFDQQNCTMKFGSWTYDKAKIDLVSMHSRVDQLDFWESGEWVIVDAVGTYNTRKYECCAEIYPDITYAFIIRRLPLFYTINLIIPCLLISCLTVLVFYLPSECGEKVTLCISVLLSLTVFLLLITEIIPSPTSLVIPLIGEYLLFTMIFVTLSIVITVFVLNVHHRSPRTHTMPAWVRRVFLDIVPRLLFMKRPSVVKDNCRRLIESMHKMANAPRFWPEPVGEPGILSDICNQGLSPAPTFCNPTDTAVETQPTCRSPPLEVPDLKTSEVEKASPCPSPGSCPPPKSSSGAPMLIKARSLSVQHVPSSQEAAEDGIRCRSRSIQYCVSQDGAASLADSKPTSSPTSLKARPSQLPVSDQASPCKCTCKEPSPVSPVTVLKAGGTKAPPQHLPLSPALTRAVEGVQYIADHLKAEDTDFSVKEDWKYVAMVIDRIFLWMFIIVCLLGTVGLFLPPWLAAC
T1 sequence (P12390 25-500): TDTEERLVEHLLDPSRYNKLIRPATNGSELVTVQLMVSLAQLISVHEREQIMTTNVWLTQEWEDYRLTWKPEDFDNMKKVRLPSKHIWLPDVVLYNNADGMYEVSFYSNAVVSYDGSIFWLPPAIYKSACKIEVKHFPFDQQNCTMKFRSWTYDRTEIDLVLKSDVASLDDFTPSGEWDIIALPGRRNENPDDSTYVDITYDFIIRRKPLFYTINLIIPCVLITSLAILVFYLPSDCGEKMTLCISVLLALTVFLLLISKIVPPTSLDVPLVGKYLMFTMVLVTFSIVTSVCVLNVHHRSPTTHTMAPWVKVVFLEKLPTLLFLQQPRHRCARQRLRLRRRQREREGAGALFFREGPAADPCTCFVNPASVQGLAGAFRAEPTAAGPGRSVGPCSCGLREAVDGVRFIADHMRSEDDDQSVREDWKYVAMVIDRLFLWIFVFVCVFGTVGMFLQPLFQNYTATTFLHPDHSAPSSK

SMILES | Ki (rat α4β2 nAChR subtype) [nM] | Ki (human α4β2 nAChR subtype) [nM] | Ki (rat α7 nAChR subtype; [1]) [nM] | Ki (rat α7 nAChR subtype) [nM] | Ki (rat α4β2 nAChR subtype; [2]) [nM] | Ki (human α4β2 nAChR subtype; SH-EP1/human α4β2 cell membranes, 5 nM [3H]nicotine) [nM]
O=C(C1CC1(F)F)N1C[C@@H]2CN[C@@H](C2)C1 (stereo partly drawn) | 11 | 11 | 670 |  |  | 
O=C(N1CC2CNC(C2)C1)C(F)(F)F (stereo not drawn) | 2400 | 2100 |  | > 10000 |  | 
O=C(C1CCC1)N1C[C@@H]2CN[C@@H](C2)C1 | 14 | 13 |  | 370 |  | 
CCOC(=O)N1C[C@H]2CN[C@H](C2)C1 | 11 | 15 |  | 4200 |  | 
CC(C)C(=O)N1C[C@@H]2CN[C@@H](C2)C1 | 380 | 380 |  | 220 |  | 
O=C(C1CC1)N1C[C@H]2CN[C@H](C2)C1 | 0.5 | 0.8 | 190 |  |  | 
CCC(=O)N1C[C@@H]2CN[C@@H](C2)C1 | 30 | 24 |  | 2000 |  | 
O=C([C@H]1C[C@H]1F)N1C[C@H]2CNC[C@@H]1C2 | 170 | 68 |  | 1300 |  | 
O=C(CCF)N1C[C@@H]2CN[C@@H](C2)C1 | 31 | 27 | 950 |  |  | 
O=C(C1C[C@@H]1F)N1CC2CNC(C2)C1 (stereo partly drawn) | 22 | 14 |  | 260 |  | 
O=C(C1CC1)N1CC2CNC(C2)C1 (stereo not drawn) | 1.3 | 1.5 | 290 |  |  | 
CC1CC1C(=O)N1C[C@@H]2CN[C@@H](C2)C1 (stereo partly drawn) | 4.8 | 6.8 |  | 460 |  | 
O=C(C1CCCC1)N1C[C@@H]2CN[C@@H](C2)C1 | 130 | 160 | 130 |  |  | 
O=C(C1CCC1)N1C[C@H]2CN[C@H](C2)C1 | 2.2 | 1.6 |  | 440 |  | 
O=C(C1C[C@H]1F)N1CC2CNC(C2)C1 (stereo partly drawn) | 21 | 11 |  | 630 |  | 
O=C(C1CC=CC1)N1CC2CNC(C2)C1 (stereo not drawn) | 11 | 13 |  | 64 |  | 
O=C(C1CC=CC1)N1C[C@@H]2CN[C@@H](C2)C1 |  |  |  | 29 | 330 | 420
O=C(C1CC=CC1)N1CC2CNCC1C2 (stereo not drawn) |  | 21 | 160 |  | 120 | 

Reference: patent US20110263629A1, “AMIDES OF DIAZABICYCLOOCTANES AND USES THEREOF” (Targacept, Inc., priority 2008, published 2011)
